In ChEMBL document CHEMBL3861987, “Synthesis, antitumor evaluation and 3D-QSAR studies of [1,2,4]triazolo[4,3-b][1,2,4,5]tetrazine derivatives” (Bioorg Med Chem Lett, 2016):

Columns and labels:
[1] = system: MCF-7 (Homo sapiens); test: Antiproliferative activity against human MCF-7 cells after 72 hrs by MTT assay; conditions: MCF-7, 72 h
[2] = Cytotoxicity against human MCF7 cells assessed as reduction in cell viability after 72 hrs by MTT assay; format: functional, cell-based; conditions: MCF7, 72 h
[3] = Cytotoxicity against human HL60 cells assessed as reduction in cell viability after 72 hrs by MTT assay; format: functional, cell-based; conditions: HL-60, 72 h
[4] = Cytotoxicity against human Bewo cells assessed as reduction in cell viability after 72 hrs by MTT assay; format: functional, cell-based
[5] = Solubility of compound in DMSO; format: physicochemical

IC50 ([1]; read-out: IC50) [µM]	IC50 ([1]; read-out: pIC50 (converted)) [µM]	solubility [5]	Structure (SMILES)	IC50 [2] [µM]	IC50 [3] [µM]	IC50 [4] [µM]
27.3	27.3	–	c1ccc(CN2CCN(c3nnc4nncn4n3)CC2)cc1	–	–	–
–	55	–	CC(C)(C)c1nnc2nnc(N3CCCC3)nn12	55	> 100	12.5
–	13.1	–	Clc1ccc(-c2nnc3nnc(N4CCOCC4)nn23)cc1	13.1	0.63	4.09
15.9	15.9	–	Cc1ccc(C(=O)N2CCN(c3nnc4nncn4n3)CC2)cc1	–	–	–
–	38.9	–	Cc1nnc2nnc(N3CCOCC3)nn12	38.9	4.52	5.88
–	42.9	–	CCCCCc1nnc2nnc(N3CCCC3)nn12	42.9	42.5	27.9
–	14.9	–	Clc1ccccc1-c1nnc2nnc(N3CCOCC3)nn12	14.9	13.2	3.15
–	32.9	–	Fc1ccc(-c2nnc3nnc(N4CCOCC4)nn23)cc1	32.9	28.9	4.65
5.26	5.26	–	CCCCCC(=O)N1CCN(c2nnc3nncn3n2)CC1	–	–	–
–	19.3	–	Clc1ccc(-c2nnc3nnc(N4CCOCC4)nn23)c(Cl)c1	19.3	4.84	1.71
–	8.87	–	c1ccc(-c2nnc3nnc(N4CCOCC4)nn23)cc1	8.87	30.4	5.65
–	–	Insoluble	c1ccc(-c2nnc3nnc(N4CCCC4)nn23)cc1	> 100	> 100	> 100
–	37.7	–	C1CCC(c2nnc3nnc(N4CCCC4)nn23)CC1	37.7	23.8	22
–	19.5	–	Cc1cc(C)n(-c2nnc3nnc(-c4ccccc4Cl)n3n2)n1	19.5	73.6	3.21
–	29.6	–	Clc1ccccc1-c1nnc2nnc(N3CCCC3)nn12	29.6	2.66	2.99
13.7	13.7	–	CCCCNc1nnc2nncn2n1	–	–	–
–	33.7	–	Cc1cc(C)n(-c2nnc3nnc(C(C)C)n3n2)n1	33.7	1.16	2.32

IC50 ([1]; read-out: IC50) [µM]	IC50 ([1]; read-out: pIC50 (converted)) [µM]	solubility [5]	Structure (SMILES)	IC50 [2] [µM]	IC50 [3] [µM]	IC50 [4] [µM]
2.76	2.75	–	CCCCC(=O)N1CCN(c2nnc3nncn3n2)CC1	–	–	–
–	54.8	–	Cc1cc(C)n(-c2nnc3nnc(Cc4ccccc4)n3n2)n1	54.8	2.61	2.29
–	22	–	CCCCCc1nnc2nnc(-n3nc(C)cc3C)nn12	22	1.05	2.79
5.39	5.38	–	CC(C)COC(=O)N1CCN(c2nnc3nncn3n2)CC1	–	–	–
88.2	88.1	–	c1nnc2nnc(NC3CCCC3)nn12	–	–	–
12.8	12.9	–	O=C(c1ccc(Cl)cc1)N1CCN(c2nnc3nncn3n2)CC1	–	–	–
–	46.8	–	CC(C)c1nnc2nnc(N3CCCC3)nn12	46.8	71.2	3.43
–	6.85	–	Cc1cc(C)n(-c2nnc3nnc(-c4ccc([N+](=O)[O-])cc4)n3n2)n1	6.85	> 100	7.29
19.8	19.8	–	CCCNc1nnc2nncn2n1	–	–	–
–	17.6	–	Cc1cc(C)n(-c2nnc3nnc(C(C)(C)C)n3n2)n1	17.6	0.73	0.73
–	13.6	–	Cc1cc(C)n(-c2nnc3nnc(-c4ccccc4)n3n2)n1	13.7	12.1	23.6
6.91	6.92	–	CCCC(=O)N1CCN(c2nnc3nncn3n2)CC1	–	–	–
5.51	5.51	–	CC(C)(C)C(=O)N1CCN(c2nnc3nncn3n2)CC1	–	–	–
4.53	4.53	–	O=C(c1ccc([N+](=O)[O-])cc1)N1CCN(c2nnc3nncn3n2)CC1	–	–	–
–	36.2	–	Cc1ccc(-c2nnc3nnc(-n4nc(C)cc4C)nn23)cc1	36.2	> 100	7.54
8.38	8.38	–	O=C(c1ccccc1)N1CCN(c2nnc3nncn3n2)CC1	–	–	–
–	12.8	–	Cc1cc(C)n(-c2nnc3nnc(C4CCCCC4)n3n2)n1	12.8	0.67	6.7

Further lines, the molecule ahead of its results:

Structure (SMILES)	IC50 ([1]; read-out: IC50) [µM]	IC50 ([1]; read-out: pIC50 (converted)) [µM]	solubility [5]	IC50 [2] [µM]	IC50 [3] [µM]	IC50 [4] [µM]
c1ccc(CCNc2nnc3nncn3n2)cc1	1.24	1.24	–	–	–	–
CCc1nnc2nnc(N3CCCC3)nn12	–	47	–	47	47	5.02
Clc1ccc(-c2nnc3nnc(N4CCCC4)nn23)c(Cl)c1	–	19.6	–	19.6	8.65	8.06
Nc1nnc2nncn2n1	46.5	46.5	–	–	–	–
O=[N+]([O-])c1ccc(-c2nnc3nnc(N4CCCCC4)nn23)cc1	–	–	–	> 100	0.61	> 100
COc1ccc(-c2nnc3nnc(N4CCOCC4)nn23)cc1	–	–	–	> 100	39	8.94
Cc1nnc2nnc(N3CCCC3)nn12	–	44.9	–	44.8	29.7	5.36
O=C(Cc1ccccc1)N1CCN(c2nnc3nncn3n2)CC1	3.08	3.08	–	–	–	–
Fc1ccc(-c2nnc3nnc(N4CCCC4)nn23)cc1	–	–	Insoluble	> 100	4.56	> 100
O=C(C1CCCCC1)N1CCN(c2nnc3nncn3n2)CC1	1.26	1.26	–	–	–	–
COc1ccc(-c2nnc3nnc(N4CCCCC4)nn23)cc1	–	–	–	> 100	12.8	> 100
CN1CCN(c2nnc3nncn3n2)CC1	21.6	21.6	–	–	–	–
CCc1nnc2nnc(-n3nc(C)cc3C)nn12	–	36.1	–	36	0.82	1.64
CC(=O)N1CCN(c2nnc3nncn3n2)CC1	13.9	13.9	–	–	–	–
c1nnc2nnc(N3CCCCC3)nn12	27.2	27.2	–	–	–	–
O=[N+]([O-])c1ccc(-c2nnc3nnc(N4CCCC4)nn23)cc1	–	–	–	> 100	> 100	> 100
Cc1cc(C)n(-c2nnc3nnc(-c4ccc(Cl)cc4)n3n2)n1	–	5.57	–	5.57	> 100	22.6
Fc1ccc(-c2nnc3nnc(N4CCCCC4)nn23)cc1	–	41.4	–	41.4	30.7	3.34
CCC(=O)N1CCN(c2nnc3nncn3n2)CC1	14.8	14.8	–	–	–	–
COc1ccc(-c2nnc3nnc(-n4nc(C)cc4C)nn23)cc1	–	16.7	–	16.7	> 100	18.3
Cc1cc(C)n(-c2nnc3nnc(C)n3n2)n1	–	17.8	–	17.8	0.43	2.61
c1nnc2nnc(NC3CCCCC3)nn12	3.51	3.52	–	–	–	–
OCCNc1nnc2nncn2n1	11.6	11.6	–	–	–	–
O=[N+]([O-])c1ccc(-c2nnc3nnc(N4CCOCC4)nn23)cc1	–	–	–	> 100	5.79	> 100
